Test results taken from patent US20240294476A1, “CRYSTAL FORM OF QUINOLINE COMPOUND AND PROCESS FOR ITS PRODUCTION” (NISSAN CHEMICAL CORPORATION, priority 2003, published 2024).

Tests used:
[1] = Stability data of drug substance (influence of water content), storage at 40° C.; type: physicochemical
Excerpt: (§1) However, in the conventional method for producing pitavastatin calcium, there has been no disclosure relating to the water content or the crystal form.

[2] = Crystallinity by powder X-ray diffraction after drying; type: physicochemical; settings: dried in a usual manner, water content at most 4%
Excerpt: as §1

[3] = 40° C. air tight, Initial stage

O=C(O)C[C@H](O)C[C@H](O)/C=C/c1c(C2CC2)nc2ccccc2c1-c1ccc(F)cc1 [Pitavastatin calcium, monocalcium bis[(3R,5S,6E)-7-(2-cyclopropyl-4-(4-fluorophenyl)-3-quinolyl)-3,5-dihydroxy-6-heptenoate]]
Analogous substance (%) ([1]; 40° C. air tight, 30 Days): 0.208% | Pitavastatin calcium (%) ([1]; 40° C. air tight, 30 Days): 99.42% | Water content (%) ([1]; 40° C. air tight, 30 Days): 7.85% | Analogous substance (%) ([1]; 40° C. air tight, 60 Days): 0.189% | Pitavastatin calcium (%) ([1]; 40° C. air tight, 60 Days): 99.79% | Water content (%) ([1]; 40° C. air tight, 60 Days): 7.88% | Analogous substance (%) ([1]; 40° C. air tight, 90 Days): 0.211% | Pitavastatin calcium (%) ([1]; 40° C. air tight, 90 Days): 99.64% | Water content (%) ([1]; 40° C. air tight, 90 Days): 7.81% | Analogous substance (%) [1, 3]: 0.179% | Pitavastatin calcium (%) [1, 3]: 99.38% | Water content (%) [1, 3]: 7.89% | Analogous substance (%) ([1]; 40° C. open air, 30 Days): 0.742% | Pitavastatin calcium (%) ([1]; 40° C. open air, 30 Days): 99.26% | Water content (%) ([1]; 40° C. open air, 30 Days): 2.45% | Analogous substance (%) ([1]; 40° C. open air, 60 Days): 1.347% | Pitavastatin calcium (%) ([1]; 40° C. open air, 60 Days): 97.19% | Water content (%) ([1]; 40° C. open air, 60 Days): 1.99% | Analogous substance (%) ([1]; 40° C. open air, 90 Days): 2.099% | Pitavastatin calcium (%) ([1]; 40° C. open air, 90 Days): 96.49% | Water content (%) ([1]; 40° C. open air, 90 Days): 1.77% | Analogous substance (%) ([1]; 40° C. open air, Initial stage): 0.179% | Pitavastatin calcium (%) ([1]; 40° C. open air, Initial stage): 99.38% | Water content (%) ([1]; 40° C. open air, Initial stage): 7.89% | stability during the storage ([1]; pitavastatin calcium which has become amorphous): very poor stability | crystallinity (powder X-ray diffraction) [2]: decrease to a state close to an amorphous state
